According to patent publication US20260355199A1, “COMPOSITIONS AND METHODS FOR TREATING OR PREVENTING NONALCOHOLIC STEATOHEPATITIS (NASH), ANOREXIA, DEPRESSION, ENDOMETRIOSIS, AND OTHER DISEASES OR DISORDERS” (priority 2022, published 2026):

Legend:
Cas9+ mice = experiment: Post-fast refeeding study with leptin; assay type: in vivo, mouse; settings: leptin 5 mg/kg i.p.
Protocol: To assess leptin effects on suppression of hunger-induced appetite, female Cas9+ mice injected with AAV or AAV-sgTet3 bilaterally into the ARC were fasted overnight for 22 h. On the second day, mouse leptin (L3772-1MG, Sigma Aldrich) was administrated at 5 mg/kg intraperitoneally at 10:00 and pre-weighed food was placed in the cage and monitored for the following 24 h. For ChIP studies, Cas9+ mice injected with AAV or AAVsgTet3 bilaterally into the ARC were fasted overnight for 22 h. On the second day, saline or leptin (5 mg/kg) was administrated intraperitoneally at 10:00. Two hours later, ARCs were isolated for ChIP-qPCR analysis. To examine leptin-induced protein-protein interactions, Cas9+ mice were fasted overnight for 22 h. On the second day, leptin was administrated at 5 mg/kg intraperitoneally at 10:00, and ARCs were isolated 2 h later, followed by co-IP studies.

[1] = system: high fat diet (HFD)-induced diabetic mice; experiment: Feeding of HFD-induced diabetic mice; assay type: in vivo, mouse; settings: drinking water, two weeks
Description: It has previously been shown that TET3 expression is aberrantly elevated in the livers of humans and mice with type 2 diabetes and that liver-specific, siRNA-mediated TET3 knockdown improves glucose homeostasis both in dietary and genetic mouse models of diabetes (Li D. et al., 2020, Nature Communications, 11:342). Bobcat339 (4-Amino-1-[1,1′-biphenyl]-3-yl-5-chloro-2(1H)-pyrimidinone) is a synthetic cytosine derivative capable of binding competitively with 5mC to the active sites of [COMPOUND LEFT OUT] and inhibits their enzymatic activity in cultured neuronal cells (Chua G. N. L. et al., 2019, ACS Medicinal Chemistry Letters, 10:180-185). Although not bound by any particular theory, it was hypothesized that Bobcat339 has an anti-diabetic effect owing to its ability to inhibit [COMPOUND LEFT OUT]. Thus, the present studies employed high fat diet (HFD)-induced diabetic mice that were treated with Bobcat339 in drinking water for two weeks. […] Thus, nondiabetic mice fed on regular chow were treated with Bobcat339 in drinking water. Four days later, ARCs were isolated from ad libitum-fed mice and analyzed. […] In light of these observations, additional studies began to explore [COMPOUND LEFT OUT] in AgRP neurons for a potential role in the control of feeding and energy metabolism.

[2] = system: Bobcat339-treated ABA mice; experiment: Behavioral tests (OFT, TST, FST); assay type: in vivo, mouse
Description: It has been reported that AgRP neuron-specific TET3 knockdown reduces stress-like behaviors with decreased levels of circulating corticosterone. […] The open field test (OFT) has been used to assess general locomotor activity and anxiety; the tail suspension test (TST) and forced swim test (FST) have been used to evaluate behavioral despair and also to test the efficacy of new antidepressant compounds. All three tests (OFT, TST, and FST) have been used in previous studies to assess behavioral impacts of AgRP neurons in mice (Miletta, M. C. et al., 2020, Nature Metabolism, 2:1204-1211).
For all behavioral tests, mice were transferred to the testing room 1 h prior to testing for acclimation to the environment. All behavioral tests were performed in the afternoon (14:00-16:00). All behavioral apparatus was wiped with 70% ethanol prior to each trial and between trials. The open field (OF) apparatus consisted of a 56×56 cm open arena with 30 cm high walls. The mouse was placed into the center of the arena and allowed to move freely for 10 min with the activity being recorded and tracked by LimeLight 3 software (Actimetrics, Coulbourn Instruments). The software recorded and analyzed the distance and time traveled in the central (28×28 cm central area of the OF) and outer areas of the arena. The tail suspension test (TST) and the forced swim test (FST) lasted for 6 min and the total amount of immobility time during the final 4 min was measured for each animal.

THP-1 cells = experiment: TUNEL assay in THP-1 cells; assay type: cell-based, human; settings: THP-1, 10 μM, 48 h
Protocol: For TET3 expression restoration experiments, cells seeded in 24-well plates were infected with Ad-GFP or Ad-TET3 at 4000 gc/cell. Following 16 h of infection, vehicle or Bobcat339 were added at a final concentration of 10 μM. Protein and RNA were isolated 48 hours later and analyzed.
These were performed using the In Situ Cell Death Detection Kit (Sigma Aldrich, 12156792910). Briefly, cells were fixed with 4% paraformaldehyde in PBS for 1 h at RT and rinsed with PBS, followed by permeabilization with 0.1% Triton X-100 in 0.1% sodium citrate for 2 min on ice. TUNEL reaction mixture was added and incubation was carried out at 37 °C for 60 min. DAPI was added to counter-stain the cells for 1 min. The slides were coverslipped and scoped using a Keyence BZ-X700 fluorescence microscope.

TET3 = TET3 protein stability (cycloheximide) in MDMs; assay type: cell-based, human; settings: 10 μM, with cycloheximide
Protocol: For TET protein stability assay of MDMs, cells in 24-well plates were incubated with vehicle or Bobcat339 at a final concentration of 10 μM for 3 h, followed by addition of cycloheximide (CHX, Cell Signaling, 2112) at a final concentration of 50 μg/mL. Proteins were harvested at 0, 2, 4, and 6 hours after addition of CHX.

[3] = Energy expenditure and feeding of mice given Bobcat339; assay type: in vivo, mouse

Compound | hunger-induced appetite (Cas9+ mice; AAV control mice) | hunger-induced appetite (Cas9+ mice; TET3 knockdown (AAV-sgTet3) mice) | feeding [1] | FST immobility time ([2]; forced swim test) | OFT time spent in the center zone ([2]; open field test) | OFT total distance travelled ([2]; open field test) | TST immobility time ([2]; tail suspension test) | apoptosis (TUNEL) (THP-1 cells) | TET3 protein stability (TET3) | feeding ([3]; drinking water or i.p.) | liver toxicity ([3]; drinking water or i.p.) | resting energy expenditure ([3]; drinking water or i.p.) | appetite stimulation by route ([3]; oral and intraperitoneal)
leptin: adipose hormone; mouse leptin L3772-1MG or human leptin L4146-1MG, Sigma Aldrich | suppressed hunger-induced appetite in control mice | failed to do so in TET3 knockdown animals | – | – | – | – | – | – | – | – | – | – | –
Nc1nc(=O)n(-c2cccc(-c3ccccc3)c2)cc1Cl [Bobcat339, 4-Amino-1-[1,1′-biphenyl]-3-yl-5-chloro-2(1H)-pyrimidinone] | – | – | became hyperphagic | spent less immobility time | increased time spent in the center zone | no differences in the total distance travelled | spent less immobility time | a significant increase in apoptotic cell death | reduced the steady-state level of TET3 much more dramatically than that of TET2 | induced hyperphagia | without showing evidence of liver toxicity | decreases resting energy expenditure | able to stimulate appetite via multiple routes of administration
